How the values were obtained:
[1] = target: CtermHisTag-mEGFR Triple Mutant - C797S, L858R, T790M (Homo sapiens, UniProt P00533, C797S/L858R/T790M); assay: TR-FRET probe displacement assay, EGFR triple mutant; assay type: binding; settings: T790M 1.25 nM, probe 100 nM, 30 mins room temperature
In short: (§1)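 Ten-point compound series, 100000 to 3 nM final, tested against His-tagged EGFR (wild type or C797S/L858R/T790M) for probe displacement. TR-FRET read at Ex337 nm, Em490/520 nm; run in technical replicate, biological duplicate.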

[2] = target: T1, Phospho-EGFR (Tyr1068) in A431 cells (Homo sapiens, UniProt P00533); assay: HTRF pEGFR/total EGFR assay in A431 cells (EGF stimulated); assay type: cell-based; settings: compound 2.5 hours then 100 ng/ml EGF 30 mins, ratio pEGFR/total EGFR
T1 construct: endogenous in cells; host or cells: A431
In short: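 A431 cells pretreated with compounds 2.5 h (0.1% DMSO), then stimulated with 100 ng/ml EGF for 30 min. Lysates assayed by HTRF for phospho-EGFR (Tyr1068) and total EGFR, read at 665/620 nm. Values are pEGFR/total EGFR ratio as percentage of 0uM control.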

[3] = target: T2, Phospho-EGFR (Tyr1068) in H1975 cells (Homo sapiens, UniProt P00533, L858R/T790M); assay: HTRF pEGFR/total EGFR assay in H1975 cells; assay type: cell-based; settings: compound 3 hours, ratio pEGFR/total EGFR
T2 construct: host or cells: H1975
In short: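 H1975 cells (EGFR L858R/T790M) adhered 24 h, then compound-treated for 3 h in duplicate, 0.1% DMSO final. Lysates read by HTRF at 665/620 nm for phospho-Tyr1068 and total EGFR. Value is pEGFR/total EGFR ratio as % of 0 uM control.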

[4] = target: T3, Phospho-EGFR (Tyr1068) in H1975 C797S cells (Homo sapiens, UniProt P00533, C797S/L858R/T790M); assay: HTRF pEGFR/total EGFR assay in H1975 C797S cells; assay type: cell-based; settings: H1975 C797S cells (CRISPR), compound 3 hours, ratio pEGFR/total EGFR
T3 construct: endogenous in cells; host or cells: H1975 C797S (CRISPR-edited in house from ATCC CRL-5908)
In short: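 H1975 cells carrying CRISPR-engineered EGFR C797S (with L858R/T790M) were exposed to compounds for 3 h at 0.1% DMSO, in duplicate. Lysates were read with HTRF kits for pEGFR Tyr1068 and total EGFR at 665/620 nm. Values are the pEGFR/total EGFR ratio as percent of the 0 uM control.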

[5] = target: CtermHisTag-mEGFR Wild type (Homo sapiens, UniProt P00533); assay: TR-FRET probe displacement assay, EGFR wild type; assay type: binding; settings: EGFR wild type 1.25 nM, probe 100 nM, 30 mins room temperature
In short: as §1

T2 sequence (P00533 25-1210 T790M/L858R): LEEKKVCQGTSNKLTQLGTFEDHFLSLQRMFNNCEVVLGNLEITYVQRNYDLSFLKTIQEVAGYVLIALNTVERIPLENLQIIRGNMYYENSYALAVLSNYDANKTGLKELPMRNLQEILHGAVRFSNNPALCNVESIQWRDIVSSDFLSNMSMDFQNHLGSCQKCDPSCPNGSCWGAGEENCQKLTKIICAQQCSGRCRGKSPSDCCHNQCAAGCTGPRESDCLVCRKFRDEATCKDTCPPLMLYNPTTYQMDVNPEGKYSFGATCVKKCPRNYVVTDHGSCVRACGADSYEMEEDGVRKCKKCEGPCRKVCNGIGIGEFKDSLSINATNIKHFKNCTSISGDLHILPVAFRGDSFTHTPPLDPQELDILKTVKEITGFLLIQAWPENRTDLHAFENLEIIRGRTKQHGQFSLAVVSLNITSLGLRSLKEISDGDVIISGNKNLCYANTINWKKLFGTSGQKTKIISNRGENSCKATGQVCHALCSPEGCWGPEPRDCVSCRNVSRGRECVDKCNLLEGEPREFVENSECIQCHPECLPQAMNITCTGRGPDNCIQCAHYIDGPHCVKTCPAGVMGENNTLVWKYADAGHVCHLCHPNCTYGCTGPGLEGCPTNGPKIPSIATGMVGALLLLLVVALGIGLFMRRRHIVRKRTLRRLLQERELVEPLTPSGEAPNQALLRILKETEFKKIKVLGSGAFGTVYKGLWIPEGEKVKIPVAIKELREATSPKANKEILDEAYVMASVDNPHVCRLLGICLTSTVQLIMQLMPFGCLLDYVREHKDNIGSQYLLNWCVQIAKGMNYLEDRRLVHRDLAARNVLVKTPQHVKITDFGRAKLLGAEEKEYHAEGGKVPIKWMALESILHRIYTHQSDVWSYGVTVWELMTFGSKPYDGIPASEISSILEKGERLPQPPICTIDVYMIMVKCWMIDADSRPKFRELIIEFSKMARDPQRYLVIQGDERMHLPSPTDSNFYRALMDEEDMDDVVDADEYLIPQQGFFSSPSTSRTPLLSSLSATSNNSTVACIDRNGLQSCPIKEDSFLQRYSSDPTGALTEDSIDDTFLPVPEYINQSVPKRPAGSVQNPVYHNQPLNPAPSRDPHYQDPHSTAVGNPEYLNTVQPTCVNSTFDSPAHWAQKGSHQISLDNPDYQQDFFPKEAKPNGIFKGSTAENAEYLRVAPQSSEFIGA
Sequence of CtermHisTag-mEGFR Wild type (P00533 25-1210): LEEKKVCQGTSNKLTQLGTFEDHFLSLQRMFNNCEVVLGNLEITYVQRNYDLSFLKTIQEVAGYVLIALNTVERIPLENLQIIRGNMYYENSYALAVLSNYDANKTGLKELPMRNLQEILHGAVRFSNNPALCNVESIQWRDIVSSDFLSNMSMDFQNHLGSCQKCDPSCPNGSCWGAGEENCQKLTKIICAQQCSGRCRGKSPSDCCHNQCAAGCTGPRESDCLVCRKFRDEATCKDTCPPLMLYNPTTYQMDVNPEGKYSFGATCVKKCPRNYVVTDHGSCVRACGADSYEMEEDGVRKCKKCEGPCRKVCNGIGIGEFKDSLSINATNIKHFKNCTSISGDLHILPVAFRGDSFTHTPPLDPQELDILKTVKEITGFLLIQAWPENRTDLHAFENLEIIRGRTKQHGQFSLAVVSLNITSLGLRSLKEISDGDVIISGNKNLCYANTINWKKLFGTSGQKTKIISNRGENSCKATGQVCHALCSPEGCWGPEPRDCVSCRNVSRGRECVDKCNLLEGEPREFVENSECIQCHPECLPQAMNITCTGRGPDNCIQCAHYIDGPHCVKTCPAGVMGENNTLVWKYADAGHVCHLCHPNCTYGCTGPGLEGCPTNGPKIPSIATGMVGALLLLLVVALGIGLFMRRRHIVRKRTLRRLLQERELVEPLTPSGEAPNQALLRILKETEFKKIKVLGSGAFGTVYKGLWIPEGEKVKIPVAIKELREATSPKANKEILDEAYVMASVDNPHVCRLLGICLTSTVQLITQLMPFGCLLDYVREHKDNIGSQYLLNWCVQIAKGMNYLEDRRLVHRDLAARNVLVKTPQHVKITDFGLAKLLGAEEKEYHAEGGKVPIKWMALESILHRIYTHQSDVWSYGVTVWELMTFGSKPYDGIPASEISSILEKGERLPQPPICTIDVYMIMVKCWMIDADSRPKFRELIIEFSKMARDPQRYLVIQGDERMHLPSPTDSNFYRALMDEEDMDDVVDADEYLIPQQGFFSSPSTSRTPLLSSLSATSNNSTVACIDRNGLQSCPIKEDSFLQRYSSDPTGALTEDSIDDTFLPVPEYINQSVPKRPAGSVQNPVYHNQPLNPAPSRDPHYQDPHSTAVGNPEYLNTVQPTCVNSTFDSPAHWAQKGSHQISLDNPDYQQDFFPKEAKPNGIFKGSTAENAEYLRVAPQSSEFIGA
T1 sequence (P00533 25-1210): as above
T3 sequence (P00533 25-1210 T790M/C797S/L858R): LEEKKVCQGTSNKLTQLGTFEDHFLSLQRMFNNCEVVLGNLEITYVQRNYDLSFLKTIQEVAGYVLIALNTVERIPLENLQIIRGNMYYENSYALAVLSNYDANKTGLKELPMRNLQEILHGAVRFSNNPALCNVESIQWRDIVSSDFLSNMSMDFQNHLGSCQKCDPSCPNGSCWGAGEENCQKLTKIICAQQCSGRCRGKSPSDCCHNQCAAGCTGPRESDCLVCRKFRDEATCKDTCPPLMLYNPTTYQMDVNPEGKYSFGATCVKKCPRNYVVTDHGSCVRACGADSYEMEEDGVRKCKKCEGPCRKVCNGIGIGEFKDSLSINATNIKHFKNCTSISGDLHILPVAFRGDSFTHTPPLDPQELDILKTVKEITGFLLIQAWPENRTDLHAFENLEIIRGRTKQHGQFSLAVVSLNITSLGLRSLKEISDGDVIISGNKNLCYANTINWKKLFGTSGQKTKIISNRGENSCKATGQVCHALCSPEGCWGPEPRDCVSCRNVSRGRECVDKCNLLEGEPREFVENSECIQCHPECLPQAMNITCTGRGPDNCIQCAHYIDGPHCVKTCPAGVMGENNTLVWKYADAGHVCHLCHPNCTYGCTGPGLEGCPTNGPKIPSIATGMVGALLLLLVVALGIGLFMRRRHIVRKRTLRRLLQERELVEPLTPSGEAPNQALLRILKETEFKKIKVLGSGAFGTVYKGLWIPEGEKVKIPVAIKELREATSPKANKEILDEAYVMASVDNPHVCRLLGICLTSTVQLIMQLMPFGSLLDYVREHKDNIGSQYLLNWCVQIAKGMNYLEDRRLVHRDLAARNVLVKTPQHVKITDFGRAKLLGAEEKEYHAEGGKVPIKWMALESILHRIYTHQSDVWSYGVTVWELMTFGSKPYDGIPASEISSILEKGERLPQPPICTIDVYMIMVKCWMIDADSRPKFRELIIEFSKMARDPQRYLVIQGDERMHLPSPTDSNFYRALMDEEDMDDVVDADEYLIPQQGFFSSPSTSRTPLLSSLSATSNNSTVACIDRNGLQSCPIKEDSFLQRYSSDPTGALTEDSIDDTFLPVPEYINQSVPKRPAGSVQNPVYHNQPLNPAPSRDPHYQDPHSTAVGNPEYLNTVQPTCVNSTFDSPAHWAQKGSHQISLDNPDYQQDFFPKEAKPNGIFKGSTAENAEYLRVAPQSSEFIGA

Compound: C#Cc1cc(N2C(=O)NCC23CCCC3)nc2nc(Nc3ccc(S(=O)(=O)N(C)C)cc3)ncc12 [Example 97, 4-[(5-Ethynyl-7-{2-oxo-1,3-diazaspiro[4.4]nonan-1-yl}pyrido[2,3-d]pyrimidin-2-yl)amino]-N,N-dimethylbenzenesulfonamide]
- IC50 [1]: 0.02 to 0.1 µM
- IC50 [2]: > 3 µM
- IC50 [3]: > 3 µM
- IC50 [4]: > 3 µM
- IC50 [5]: > 10 µM

Compound: C#Cc1cc(N2C(=O)NCC23CCCC3)nc2nc(Nc3ccc(S(=O)(=O)N(C)CCN(C)C)cc3)ncc12 [Example 98, N-[2-(dimethylamino)ethyl]-4-[(5-ethynyl-7-{2-oxo-1,3-diazaspiro[4.4]nonan-1-yl}pyrido[2,3-d]pyrimidin-2-yl)amino]-N-methylbenzenesulfonamide]
- IC50 [1]: 0.02 to 0.1 µM
- IC50 [2]: 1 to 3 µM
- IC50 [3]: > 3 µM
- IC50 [4]: > 3 µM
- IC50 [5]: < 1 µM

Compound: C#Cc1cc(N2C(=O)NC[C@@H]2C(C)C)nc2nc(Nc3ccc(N4CCN(C)CC4)cc3)ncc12 [Example 99, (5S)-1-(5-Ethynyl-2-{[4-(4-methylpiperazin-1-yl)phenyl]amino}pyrido[2,3-d]pyrimidin-7-yl)-5-isopropylmidazolidin-2-one]
- IC50 [1]: < 0.02 µM
- IC50 [2]: > 3 µM
- IC50 [3]: < 0.5 µM
- IC50 [4]: < 0.5 µM
- IC50 [5]: < 1 µM

Compound: C#Cc1cc(N2C(=O)NC[C@H]2C(C)C)nc2nc(Nc3ccc(N4CCN(C)CC4)cc3)ncc12 [Example 100, (5R)-1-(5-Ethynyl-2-{[4-(4-methylpiperazin-1-yl)phenyl]amino}pyrido[2,3-d]pyrimidin-7-yl)-5-isopropylmidazolidin-2-one]
- IC50 [1]: 0.1 to 1 µM
- IC50 [2]: > 3 µM
- IC50 [3]: 0.5 to 1 µM
- IC50 [4]: 1 to 3 µM
- IC50 [5]: > 10 µM

Compound: C#Cc1cc(N2C(=O)NC[C@H]2COC)nc2nc(Nc3ccc(N4CCN(C)CC4)cc3)ncc12 [Example 101, (5S)-1-(5-Ethynyl-2-{[4-(4-methylpiperazin-1-yl)phenyl]amino}pyrido[2,3-d]pyrimidin-7-yl)-5-(methoxymethyl)imidazolidin-2-one]
- IC50 [1]: 0.02 to 0.1 µM
- IC50 [2]: > 3 µM
- IC50 [3]: 0.5 to 1 µM
- IC50 [4]: > 3 µM
- IC50 [5]: 1 to 10 µM

Compound: C#Cc1cc(N2C(=O)N(C)CC2C(C)C)nc2nc(Nc3ccc(N4CCN(C)CC4)cc3)ncc12 (stereo not shown) [Example 102, 3-(5-Ethynyl-2-{[4-(4-methylpiperazin-1-yl)phenyl]amino}pyrido[2,3-d]pyrimidin-7-yl)-4-isopropyl-1-methylmidazolidin-2-one]
- IC50 [1]: < 0.02 µM
- IC50 [2]: > 3 µM
- IC50 [3]: > 3 µM
- IC50 [4]: > 3 µM
- IC50 [5]: 1 to 10 µM

Compound: C#Cc1cc(N2C(=O)N(C)CC23CCCC3)nc2nc(Nc3ccc(N4CCOCC4)cc3)ncc12 [Example 103, 1-(5-Ethynyl-2-{[4-(morpholin-4-yl)phenyl]amino}pyrido[2,3-d]pyrimidin-7-yl)-3-methyl-1,3-diazaspiro[4.4]nonan-2-one]
- IC50 [1]: 0.02 to 0.1 µM
- IC50 [2]: 1 to 3 µM
- IC50 [3]: < 0.5 µM
- IC50 [4]: < 0.5 µM
- IC50 [5]: < 1 µM

Compound: C#Cc1cc(N2C(=O)N(C)CC23CCCC3)nc2nc(Nc3ccc(N4CCN(C5COC5)CC4)cc3)ncc12 [Example 104, 1-[5-Ethynyl-2-([4-[4-(oxetan-3-yl)piperazin-1-yl]phenyl]amino)pyrido[2,3-d]pyrimidin-7-yl]-3-methyl-1,3-diazaspiro[4.4]nonan-2-one]
- IC50 [1]: 0.02 to 0.1 µM
- IC50 [2]: > 3 µM
- IC50 [3]: 1 to 3 µM
- IC50 [4]: 1 to 3 µM
- IC50 [5]: < 1 µM

Compound: C#Cc1cc(N2C(=O)N(C)CC23CCCC3)nc2nc(Nc3ccc(N(C)C(C)=O)cc3)ncc12 [Example 105, N-{4-[(5-Ethynyl-7-{3-methyl-2-oxo-1,3-diazaspiro[4.4]nonan-1-yl}pyrido[2,3-d]pyrimidin-2-yl)amino]phenyl}-N-methylacetamide]
- IC50 [1]: 0.1 to 1 µM
- IC50 [2]: > 3 µM
- IC50 [3]: > 3 µM
- IC50 [4]: > 3 µM
- IC50 [5]: > 10 µM

Compound: C#Cc1cc(N2C(=O)N(C)CC23CCCC3)nc2nc(Nc3ccc(N(C)C(=O)CN(C)C)cc3)ncc12 [Example 106, 2-(Dimethylamino)-N-{4-[(5-ethynyl-7-{3-methyl-2-oxo-1,3-diazaspiro[4.4]nonan-1-yl}pyrido[2,3-d]pyrimidin-2-yl)amino}phenyl]-N-methylacetamide]
- IC50 [1]: 0.1 to 1 µM
- IC50 [2]: 1 to 3 µM
- IC50 [3]: > 3 µM
- IC50 [4]: 1 to 3 µM
- IC50 [5]: 1 to 10 µM

Compound: C#Cc1cc(N2C(=O)N(C)CC23CCCC3)nc2nc(Nc3ccc(OCCN(C)C)cc3)ncc12 [Example 107]
- IC50 [1]: 0.1 to 1 µM
- IC50 [2]: > 3 µM
- IC50 [3]: 1 to 3 µM
- IC50 [4]: 1 to 3 µM
- IC50 [5]: 1 to 10 µM

Compound: C#Cc1cc(N2C(=O)N(C)CC23CCCC3)nc2nc(Nc3ccc(S(C)(=O)=O)cc3)ncc12 [Example 108, 1-{5-Ethynyl-2-[(4-methanesulfonylphenyl)amino]pyrido [2,3-d]pyrimidin-7-yl}-3-methyl-1,3-diazaspiro [4.4]nonan-2-one]
- IC50 [1]: 0.02 to 0.1 µM
- IC50 [2]: 1 to 3 µM
- IC50 [3]: > 3 µM
- IC50 [4]: > 3 µM
- IC50 [5]: > 10 µM

Compound: C#Cc1cc(N2C(=O)N(C)CC23CCCC3)nc2nc(Nc3ccc(S(=O)(=O)N(C)C)cc3)ncc12 [Example 109, 4-[(5-Ethynyl-7-{3-methyl-2-oxo-1,3-diazaspiro[4.4]nonan-1-yl}pyrido[2,3-d]pyrimidin-2-yl)amino]-N,N-dimethylbenzenesulfonamide]
- IC50 [1]: 0.1 to 1 µM
- IC50 [2]: 1 to 3 µM
- IC50 [3]: > 3 µM
- IC50 [4]: > 3 µM
- IC50 [5]: > 10 µM

Compound: C#Cc1cc(N2C(=O)N(C)CC23CCCC3)nc2nc(Nc3ccc(S(=O)(=O)N(C)CCN(C)C)cc3)ncc12 [Example 110, N-[2-(Dimethylamino)ethyl]-4-[(5-ethynyl-7-{3-methyl-2-oxo-1,3-diazaspiro[4.4]nonan 1-yl}pyrido[2,3-d]pyrimidin-2-yl)amino]-N-methylbenzenesulfonamide]
- IC50 [1]: 0.1 to 1 µM
- IC50 [2]: > 3 µM
- IC50 [3]: > 3 µM
- IC50 [4]: > 3 µM
- IC50 [5]: > 10 µM

Compound: C#Cc1cc(N2C(=O)OCC2C2CCCC2)nc2nc(Nc3ccc(N4CCN(C)CC4)cc3)ncc12 (stereo not shown) [Example 111, 4-Cyclopentyl-3-(5-ethynyl-2-{[4-(4-methylpiperazin-1-yl)phenyl]amino}pyrido[2,3-d]pyrimidin-7-yl)-1,3-oxazolidin-2-one]
- IC50 [1]: < 0.02 µM
- IC50 [2]: > 3 µM
- IC50 [3]: 0.5 to 1 µM
- IC50 [4]: 0.5 to 1 µM
- IC50 [5]: 1 to 10 µM

Compound: C#Cc1cc(N2C(=O)OCC2CC2CCCC2)nc2nc(Nc3ccc(N4CCN(C)CC4)cc3)ncc12 (stereo not shown) [Example 112, 4-(Cyclopentylmethyl)-3-(5-ethynyl-2-{[4-(4-methylpiperazin-1-yl)phenyl]amino}pyrido[2,3-d]pyrimidin-7-yl)-1,3-oxazolidin-2-one]
- IC50 [1]: < 0.02 µM
- IC50 [2]: > 3 µM
- IC50 [3]: 0.5 to 1 µM
- IC50 [4]: 0.5 to 1 µM
- IC50 [5]: < 1 µM

Compound: C#Cc1cc(N2CC(C(C)C)OC2=O)nc2nc(Nc3ccc(N4CCN(C)CC4)cc3)ncc12 (stereo not shown) [Example 113, 3-(5-Ethynyl-2-{[4-(4-methylpiperazin-1-yl)phenyl]amino}pyrido[2,3-d]pyrimidin-7-yl)-5-isopropyl-1.3-oxazolidin-2-one]
- IC50 [1]: 0.02 to 0.1 µM
- IC50 [2]: > 3 µM
- IC50 [3]: 0.5 to 1 µM
- IC50 [4]: 1 to 3 µM
- IC50 [5]: > 10 µM

Compound: C#Cc1cc(N2C(=O)OCC23CCCC3)nc2nc(Nc3ccc(N4CCN(C)CC4)cc3)ncc12 [Example 114, 1-(5-Ethynyl-2-{[4-(4-methylpiperazin-1-yl)phenyl]amino}pyrido[2,3-d]pyrimidin-7-yl)-3-oxa-1-azaspiro[4.4]nonan-2-one]
- IC50 [1]: < 0.02 µM
- IC50 [2]: 1 to 3 µM
- IC50 [3]: < 0.5 µM
- IC50 [4]: 0.5 to 1 µM
- IC50 [5]: < 1 µM

Compound: C#Cc1cc(N2C(=O)OCC2C2CCCC2)nc2nc(Nc3ccc(N4CCNCC4)cc3)ncc12 (stereo not shown) [Example 115, 4-Cyclopentyl-3-(5-ethynyl-2-{[4-(piperazin-1-yl)phenyl]amino}pyrido[2,3-d]pyrimidin-7-y0)-1,3-oxazolidin-2-one]
- IC50 [1]: < 0.02 µM
- IC50 [2]: > 3 µM
- IC50 [3]: 0.5 to 1 µM
- IC50 [4]: > 3 µM
- IC50 [5]: 1 to 10 µM

Compound: C#Cc1cc(N2C(=O)OCC2COC)nc2nc(Nc3ccc(N4CCN(C)CC4)cc3)ncc12 (stereo not shown) [Example 116, 3-(5-Ethynyl-2-{[4-(4-methylpiperazin-1-yl)phenyl]amino}pyrido[2,3-d]pyrimidin-7-yl)-4-(methoxymethyl)-1,3-oxazolidin-2-one]
- IC50 [1]: < 0.02 µM
- IC50 [2]: > 3 µM
- IC50 [3]: < 0.5 µM
- IC50 [4]: 0.5 to 1 µM
- IC50 [5]: 1 to 10 µM
